Test results published in PMC3434972 (Bioorganic & medicinal chemistry letters, 2011).
Changes are numbered by the printed parent chain. Read-outs that look alike come from different tables or passages of the source. Each block holds one compound with its values, some of them ahead of it.

Legend:
hM1 [1] = target: T1, hM1 (Homo sapiens, UniProt P11229); test: hM1 antagonist calcium mobilization assay; assay type: cell-based; settings: for fold loss in potency/activity relative to ML012: hM1, versus ML012; for hM1 antagonist activity in words: highest concentration tested 30 μM
T1 sequence (P11229 1-460): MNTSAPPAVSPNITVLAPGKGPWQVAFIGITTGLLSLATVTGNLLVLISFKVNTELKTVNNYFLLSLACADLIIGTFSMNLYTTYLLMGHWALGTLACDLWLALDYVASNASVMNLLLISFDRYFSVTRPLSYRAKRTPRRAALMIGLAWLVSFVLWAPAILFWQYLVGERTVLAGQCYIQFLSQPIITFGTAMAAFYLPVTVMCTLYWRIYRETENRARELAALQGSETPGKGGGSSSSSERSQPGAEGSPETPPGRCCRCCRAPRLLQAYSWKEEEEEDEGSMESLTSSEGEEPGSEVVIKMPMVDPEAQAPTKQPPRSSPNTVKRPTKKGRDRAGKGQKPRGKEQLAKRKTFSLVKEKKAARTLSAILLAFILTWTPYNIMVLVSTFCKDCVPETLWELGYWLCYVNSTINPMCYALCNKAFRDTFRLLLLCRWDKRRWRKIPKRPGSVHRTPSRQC

rM1 = target: T2, rM1 (Rattus norvegicus, UniProt P08482); test: rat M1 antagonist calcium mobilization assay; assay type: cell-based
T2 sequence (P08482 1-460): T1 sequence (P11229 1-460) with A5V, T254S, P309S, R320K, A337G, I413V

rat M1–5 receptors = test: selectivity across the rat mAChRs, calcium mobilization assay; assay type: cell-based; settings: Figure 4
[2] = rat pharmacokinetics and CNS exposure; assay type: in vivo; settings: dosed orally at 10 mg/kg
[3] = in vitro DMPK prediction of clearance; assay type: in vitro ADME
hM1 [4] = target: T1, hM1; settings: read-out: IC50 for ML012 previously reported; cited from earlier work
[5] = tested on: pilocarpine-induced seizures; settings: rodent models; cited from earlier work
contextual freezing = settings: at doses that reduced seizures; cited from earlier work

fold loss in potency/activity relative to ML012 (hM1 [1]): roughly 14 fold
Structure (SMILES): O=C(CCNS(=O)(=O)c1cccc2nsnc12)N1CCN(c2ccccn2)CC1 [Compound 6d]

fold decrease in activity relative to sulfur analog 6j (hM1 [1]; hM1, versus 6j): 3 fold
Structure (SMILES): O=C(CCNS(=O)(=O)c1cccc2nonc12)N1CCN(c2ccc(Br)cn2)CC1 [Compound 13a]

IC50 (hM1 [1]): 4.5 µM
fold loss in potency/activity relative to ML012 (hM1 [1]): 4 fold
Structure (SMILES): O=C(CCNS(=O)(=O)c1cccc2nonc12)N1CCN(c2ccncc2)CC1 [Compound 13b]

hM1 antagonist activity in words (hM1 [1]): complete loss of activity
Structure (SMILES): O=C(CCNS(=O)(=O)c1cccc2ccccc12)N1CCN(c2ccc(Br)cn2)CC1 [Compound 13i]

hM1 antagonist activity in words (hM1 [1]): inactive
Structure (SMILES): O=C(CCNS(=O)(=O)c1cccc2scnc12)N1CCN(c2ccncc2)CC1 [Compound 13j]

EC50 (rM1): 180 nM
selectivity for the M1 receptor over the M2–5 subtypes (rat M1–5 receptors): very high selectivity
CNS concentrations / CNS exposure [2]: undetectable
in vitro DMPK prediction of clearance [3]: high clearance
Structure (SMILES): O=C(CCNS(=O)(=O)c1cccc2ncccc12)N1CCN(c2ccncc2)CC1 [Compound 13l]

Second part, the compound before the results:

Structure (SMILES): O=S(=O)(NCCCN1CCN(c2ccncc2)CC1)c1cccc2nsnc12 [Compound 7]
fold loss in potency/activity relative to ML012 (hM1 [1]): greater than 14 fold

Structure (SMILES): O=C(C(F)CNS(=O)(=O)c1cccc2nonc12)N1CCN(c2ccncc2)CC1 (stereo not shown) [Compound 9]
fold decrease in potency relative to 13b (hM1 [1]; hM1, versus 13b): roughly 2 fold

Structure (SMILES): C[C@H](CC(=O)N1CCN(c2ccncc2)CC1)NS(=O)(=O)c1cccc2nonc12 [Compound 10]
hM1 antagonist activity in words (hM1 [1]): completely inactive

Structure (SMILES): CN(CCC(=O)N1CCN(c2ccncc2)CC1)S(=O)(=O)c1cccc2nsnc12 [Compound 12]
fold loss in potency/activity relative to ML012 (hM1 [1]): greater than 14 fold

Structure (SMILES): O=C(CCNS(=O)(=O)c1cccc2nsnc12)N1CCN(c2ccncc2)CC1 [ML012]
EC50 (rM1): 240 nM
selectivity for the M1 receptor over the M2–5 subtypes (rat M1–5 receptors): selectively antagonize the M1 mAChR relative to the M2–5 mAChRs
IC50 (hM1 [4]): 132 nM
effect on pilocarpine-induced seizures [5]: reduced pilocarpine-induced seizures
deficits in contextual freezing (contextual freezing): did not induce deficits in contextual freezing
